From PubChem BioAssay AID2060887 (Molecular Pharmacology Branch, DTP, NCI, 2025)

Test system: 782815-120-R-J1-PDC complex spheroid viability
Experiment: Anticancer human tumor 782815-120-R-J1-PDC patient-derived colon adenocarcinoma cell line growth inhibition [RAS]
Details: for IC50: curve of first compound; for viability, T/C: stronger effect = lower value
In short: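 Tumour cells grown as complex spheroids with HUVEC endothelial cells and mesenchymal stem cells, treated with RAS pathway inhibitor combinations. Each agent spans half-log steps from near clinical Cmax, or 10 microM where Cmax is unknown.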

[1] = second compound 0.00316 µM, first compound 0.0316 µM
[2] = second compound 0.00316 µM, first compound 0.1 µM
[3] = second compound 0.00316 µM, first compound 0.316 µM
[4] = second compound 0.00316 µM, first compound 1 µM
[5] = second compound 0.00316 µM, first compound 3.16 µM
[6] = second compound 0.00316 µM, first compound 10 µM
[7] = second compound 0.01 µM, first compound 0.0316 µM
[8] = second compound 0.01 µM, first compound 0.1 µM
[9] = second compound 0.01 µM, first compound 0.316 µM
[10] = second compound 0.01 µM, first compound 1 µM
[11] = second compound 0.01 µM, first compound 3.16 µM
[12] = second compound 0.01 µM, first compound 10 µM
[13] = second compound 0.0316 µM, first compound 0.0316 µM
[14] = second compound 0.0316 µM, first compound 0.1 µM
[15] = second compound 0.0316 µM, first compound 0.316 µM
[16] = second compound 0.0316 µM, first compound 1 µM
[17] = second compound 0.0316 µM, first compound 3.16 µM
[18] = second compound 0.0316 µM, first compound 10 µM
[19] = second compound 0.1 µM, first compound 0.0316 µM
[20] = second compound 0.1 µM, first compound 0.1 µM
[21] = second compound 0.1 µM, first compound 0.316 µM
[22] = second compound 0.1 µM, first compound 1 µM
[23] = second compound 0.1 µM, first compound 3.16 µM
[24] = second compound 0.1 µM, first compound 10 µM
[25] = second compound 0.316 µM, first compound 0.0316 µM
[26] = second compound 0.316 µM, first compound 0.1 µM
[27] = second compound 0.316 µM, first compound 0.316 µM
[28] = second compound 0.316 µM, first compound 1 µM
[29] = second compound 0.316 µM, first compound 3.16 µM
[30] = second compound 0.316 µM, first compound 10 µM
[31] = second compound 1 µM, first compound 0.0316 µM
[32] = second compound 1 µM, first compound 0.1 µM
[33] = second compound 1 µM, first compound 0.316 µM
[34] = second compound 1 µM, first compound 1 µM
[35] = second compound 1 µM, first compound 3.16 µM
[36] = second compound 1 µM, first compound 10 µM
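Also: spheroids exposed to compounds for 7 days before reading.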
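For viability, T/C in this document: 100% = DMSO vehicle control viability.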

Compound: CC(=O)OC12COC1CC(O)C1(C)C(=O)C(O)C3=C(C)C(OC(=O)C(O)C(NC(=O)OC(C)(C)C)c4ccccc4)CC(O)(C(OC(=O)c4ccccc4)C21)C3(C)C (stereo not given) + C=CC(=O)N1CCN(c2nc(OCC3CCCN3C)nc3c(F)c(-c4nc(N)cc(C)c4C(F)(F)F)c(Cl)cc23)C(C)C1
- IC50 (second compound 0.00316 µM): < 31.6 nM
- IC50 (second compound 0.01 µM): < 31.6 nM
- IC50 (second compound 0.0316 µM): < 31.6 nM
- IC50 (second compound 0.1 µM): < 31.6 nM
- IC50 (second compound 0.316 µM): < 31.6 nM
- IC50 (second compound 1 µM): < 31.6 nM
- viability, T/C [1]: 33.6%
- viability, T/C [2]: 31.1%
- viability, T/C [3]: 25.6%
- viability, T/C [4]: 23.6%
- viability, T/C [5]: 28.3%
- viability, T/C [6]: 33.2%
- viability, T/C [7]: 34.1%
- viability, T/C [8]: 32%
- viability, T/C [9]: 25.7%
- viability, T/C [10]: 22.3%
- viability, T/C [11]: 25%
- viability, T/C [12]: 34.1%
- viability, T/C [13]: 40%
- viability, T/C [14]: 24.2%
- viability, T/C [15]: 23.6%
- viability, T/C [16]: 27.6%
- viability, T/C [17]: 23.6%
- viability, T/C [18]: 34.7%
- viability, T/C [19]: 36.8%
- viability, T/C [20]: 30.4%
- viability, T/C [21]: 20.3%
- viability, T/C [22]: 22.9%
- viability, T/C [23]: 25%
- viability, T/C [24]: 29.2%
- viability, T/C [25]: 37.4%
- viability, T/C [26]: 27.4%
- viability, T/C [27]: 25%
- viability, T/C [28]: 23.5%
- viability, T/C [29]: 28.4%
- viability, T/C [30]: 29.6%
- viability, T/C [31]: 38.1%
- viability, T/C [32]: 26.9%
- viability, T/C [33]: 27.4%
- viability, T/C [34]: 23.6%
- viability, T/C [35]: 27.5%
- viability, T/C [36]: 33.3%

Compound: CCC(CC)c1cc(NC2CCC(N)C2)n2nccc2n1 (stereo not given) + C=CC(=O)N1CCN(c2nc(OCC3CCCN3C)nc3c(F)c(-c4nc(N)cc(C)c4C(F)(F)F)c(Cl)cc23)C(C)C1
- IC50 (second compound 0.00316 µM): 2280 nM
- IC50 (second compound 0.01 µM): 2320 nM
- IC50 (second compound 0.0316 µM): 2450 nM
- IC50 (second compound 0.1 µM): 2160 nM
- IC50 (second compound 0.316 µM): 2540 nM
- IC50 (second compound 1 µM): 2280 nM
- viability, T/C [1]: 108%
- viability, T/C [2]: 111%
- viability, T/C [3]: 106%
- viability, T/C [4]: 98.3%
- viability, T/C [5]: 31%
- viability, T/C [6]: 1.4%
- viability, T/C [7]: 105%
- viability, T/C [8]: 107%
- viability, T/C [9]: 108%
- viability, T/C [10]: 104%
- viability, T/C [11]: 30.4%
- viability, T/C [12]: 1.14%
- viability, T/C [13]: 101%
- viability, T/C [14]: 103%
- viability, T/C [15]: 95.8%
- viability, T/C [16]: 115%
- viability, T/C [17]: 34.6%
- viability, T/C [18]: 1.3%
- viability, T/C [19]: 102%
- viability, T/C [20]: 98.2%
- viability, T/C [21]: 104%
- viability, T/C [22]: 98.4%
- viability, T/C [23]: 26.2%
- viability, T/C [24]: 1.7%
- viability, T/C [25]: 103%
- viability, T/C [26]: 101%
- viability, T/C [27]: 95.5%
- viability, T/C [28]: 106%
- viability, T/C [29]: 37.9%
- viability, T/C [30]: 1.49%
- viability, T/C [31]: 98%
- viability, T/C [32]: 104%
- viability, T/C [33]: 103%
- viability, T/C [34]: 100%
- viability, T/C [35]: 29.9%
- viability, T/C [36]: 2.19%

Compound: Cc1nc(N2CCC3(CC2)COC(C)C3N)c(CO)nc1Sc1ccnc(N)c1Cl (stereo not given) + C=CC(=O)N1CCN(c2nc(OCC3CCCN3C)nc3c(F)c(-c4nc(N)cc(C)c4C(F)(F)F)c(Cl)cc23)C(C)C1
- IC50 (second compound 0.00316 µM): > 10000 nM
- IC50 (second compound 0.01 µM): > 10000 nM
- IC50 (second compound 0.0316 µM): > 10000 nM
- IC50 (second compound 0.1 µM): > 10000 nM
- IC50 (second compound 0.316 µM): > 10000 nM
- IC50 (second compound 1 µM): > 10000 nM
- viability, T/C [1]: 92.3%
- viability, T/C [2]: 107%
- viability, T/C [3]: 97.4%
- viability, T/C [4]: 96%
- viability, T/C [5]: 106%
- viability, T/C [6]: 101%
- viability, T/C [7]: 103%
- viability, T/C [8]: 115%
- viability, T/C [9]: 96.2%
- viability, T/C [10]: 108%
- viability, T/C [11]: 104%
- viability, T/C [12]: 100%
- viability, T/C [13]: 101%
- viability, T/C [14]: 98.9%
- viability, T/C [15]: 97.8%
- viability, T/C [16]: 97.3%
- viability, T/C [17]: 95.1%
- viability, T/C [18]: 101%
- viability, T/C [19]: 98.7%
- viability, T/C [20]: 110%
- viability, T/C [21]: 98.1%
- viability, T/C [22]: 105%
- viability, T/C [23]: 104%
- viability, T/C [24]: 97.9%
- viability, T/C [25]: 103%
- viability, T/C [26]: 102%
- viability, T/C [27]: 103%
- viability, T/C [28]: 105%
- viability, T/C [29]: 108%
- viability, T/C [30]: 102%
- viability, T/C [31]: 98.6%
- viability, T/C [32]: 102%
- viability, T/C [33]: 95.8%
- viability, T/C [34]: 100%
- viability, T/C [35]: 99.9%
- viability, T/C [36]: 104%

Compound: NC1c2ccccc2OC12CCN(c1cnc3c(N4CCCc5ncccc54)n[nH]c3n1)CC2 (stereo not given) + C=CC(=O)N1CCN(c2nc(OCC3CCCN3C)nc3c(F)c(-c4nc(N)cc(C)c4C(F)(F)F)c(Cl)cc23)C(C)C1
- IC50 (second compound 0.00316 µM): > 10000 nM
- IC50 (second compound 0.01 µM): > 10000 nM
- IC50 (second compound 0.0316 µM): > 10000 nM
- IC50 (second compound 0.1 µM): > 10000 nM
- IC50 (second compound 0.316 µM): > 10000 nM
- IC50 (second compound 1 µM): > 10000 nM
- viability, T/C [1]: 94.4%
- viability, T/C [2]: 110%
- viability, T/C [3]: 95.4%
- viability, T/C [4]: 93.8%
- viability, T/C [5]: 98.2%
- viability, T/C [6]: 84.4%
- viability, T/C [7]: 98.4%
- viability, T/C [8]: 95.6%
- viability, T/C [9]: 89%
- viability, T/C [10]: 91.3%
- viability, T/C [11]: 93.8%
- viability, T/C [12]: 82.8%
- viability, T/C [13]: 96.4%
- viability, T/C [14]: 107%
- viability, T/C [15]: 98.3%
- viability, T/C [16]: 100%
- viability, T/C [17]: 99.7%
- viability, T/C [18]: 71.9%
- viability, T/C [19]: 95.1%
- viability, T/C [20]: 105%
- viability, T/C [21]: 91.7%
- viability, T/C [22]: 107%
- viability, T/C [23]: 95.8%
- viability, T/C [24]: 79.7%
- viability, T/C [25]: 98%
- viability, T/C [26]: 90.9%
- viability, T/C [27]: 88.5%
- viability, T/C [28]: 100%
- viability, T/C [29]: 94.3%
- viability, T/C [30]: 74.6%
- viability, T/C [31]: 108%
- viability, T/C [32]: 86.4%
- viability, T/C [33]: 103%
- viability, T/C [34]: 93.3%
- viability, T/C [35]: 91.8%
- viability, T/C [36]: 77.8%

Compound: Nc1ccn(C2OC(CO)C(O)C2(F)F)c(=O)n1 (stereo not given) + C=CC(=O)N1CCN(c2nc(OCC3CCCN3C)nc3c(F)c(-c4nc(N)cc(C)c4C(F)(F)F)c(Cl)cc23)C(C)C1
- IC50 (second compound 0.00316 µM): 62.7 nM
- IC50 (second compound 0.01 µM): 53.2 nM
- IC50 (second compound 0.0316 µM): 58.9 nM
- IC50 (second compound 0.1 µM): 53.6 nM
- IC50 (second compound 0.316 µM): 60.4 nM
- IC50 (second compound 1 µM): 61.4 nM
- viability, T/C (second compound 0.00316 µM, first compound 0.00316 µM): 90.9%
- viability, T/C (second compound 0.00316 µM, first compound 0.01 µM): 81.2%
- viability, T/C [1]: 56.9%
- viability, T/C [2]: 46.9%
- viability, T/C [3]: 24.7%
- viability, T/C [4]: 19.1%
- viability, T/C (second compound 0.01 µM, first compound 0.00316 µM): 93.9%
- viability, T/C (second compound 0.01 µM, first compound 0.01 µM): 82%
- viability, T/C [7]: 57.8%
- viability, T/C [8]: 40.7%
- viability, T/C [9]: 23.6%
- viability, T/C [10]: 21%
- viability, T/C (second compound 0.0316 µM, first compound 0.00316 µM): 99%
- viability, T/C (second compound 0.0316 µM, first compound 0.01 µM): 83.5%
- viability, T/C [13]: 57.9%
- viability, T/C [14]: 43.6%
- viability, T/C [15]: 27.1%
- viability, T/C [16]: 21.7%
- viability, T/C (second compound 0.1 µM, first compound 0.00316 µM): 93.3%
- viability, T/C (second compound 0.1 µM, first compound 0.01 µM): 85.7%
- viability, T/C [19]: 54.3%
- viability, T/C [20]: 41.3%
- viability, T/C [21]: 31.2%
- viability, T/C [22]: 21.5%
- viability, T/C (second compound 0.316 µM, first compound 0.00316 µM): 92.3%
- viability, T/C (second compound 0.316 µM, first compound 0.01 µM): 77.6%
- viability, T/C [25]: 61.6%
- viability, T/C [26]: 40.9%
- viability, T/C [27]: 29.4%
- viability, T/C [28]: 21.4%
- viability, T/C (second compound 1 µM, first compound 0.00316 µM): 92%
- viability, T/C (second compound 1 µM, first compound 0.01 µM): 85.8%
- viability, T/C [31]: 58.8%
- viability, T/C [32]: 43%
- viability, T/C [33]: 29.2%
- viability, T/C [34]: 23.1%
